Results from patent publication US7258882B2, “System for maintaining fresh quality and safe food attributes of minimally processed produce” (priority 2002, dated 2007).

Test system: total aerobic population
Test: Total aerobic plate count of washed, packaged and stored mushrooms
Description: Mushrooms were either 1) untreated (unwashed), that is, left as picked; 2) sodium metabisulfite (sulfite treated) washed. Mushrooms were water rinsed with tap water for 2 seconds then processed through 2 consecutive dip tanks containing 500 ppm sodium metabisulfite in solution; or 3) Washed using the herein disclosed process (new wash) specifically as follows: Mushrooms were conveyed on a slotted conveyor belt and sprayed with tap water for 2 seconds. They dropped into a series of two dip tanks containing 3% (w/v) sodium erythorbate, 0.15% (w/v) disodium EDTA, 0.15% (w/v) calcium chloride. Total residence time was 30 seconds. The whole mushrooms were then treated by dipping in water containing 2 ppm ozone (15 second exposure) followed immediately by 10 second exposure to ultraviolet lamp. Half of the mushroom were sliced and again exposed to 10 seconds of ultraviolet lamp. The mushrooms were packaged and stored at either 35, 45 or 55 degrees Fahrenheit and analyzed microbiologically at day 0, 3, 6, and 9 for total aerobic plate count with a sensitivity of 1,000 cfu/gram, and day 3,6 and 9 for organoleptic properties including degree of whiteness, amount of veil opening, and overall salability/quality. Storage at 45 and 55 degrees Fahrenheit represent physiologically stressful conditions and will illustrate benefits of treatments to a greater extent than 35 degree F. storage. For all examples, data was analyzed statistically using single factor ANOVA and Student's T-test preparing two groups and assuming equal variances. All data was analyzed at 95% confidence levels. Mushrooms were either 1) Mushrooms were washed with water (2-3 second drench with tap water) then processed through 2 consecutive dip tanks containing an aqueous solution of 500 ppm sodium metabisulfite (sulfite treated); or 2) Washed using the herein disclosed process (new wash) specifically as follows: Mushrooms were conveyed on a slotted conveyor belt and sprayed with tap water for […]. They dropped into a series of two dip tanks containing 3% (w/v) sodium erythorbate, 0.15% (w/v) disodium EDTA, 0.15% (w/v) calcium chloride. Total residence time was 30 seconds. The whole mushrooms were then treated with 2 ppm ozone spray followed by 10 second exposure to ultraviolet lamp. Half of the mushroom were sliced and again exposed to 10 seconds of ultraviolet lamp. The mushrooms were packaged and stored at either 35, 45 or 55 degrees Fahrenheit. 35 degree F. stored samples were analyzed at day 0, 2, 6, and 9 and 14 for total aerobic plate count. Both 35 and 45 degree F. stored samples were analyzed on day 2, 6, 9 and 14 for organoleptic properties including degree of whiteness, amount of veil opening, and overall salability/quality. Storage at 45 degrees Fahrenheit represent physiologically stressful conditions and will illustrate benefits of treatments to a greater extent than 35 degree F. storage. Mushrooms were either 1) untreated (unwashed), that is, left as picked; 2)sodium metabisulfite (sulfite treated) washed. Mushrooms were water rinsed with tap water for 5 seconds then processed through 2 consecutive dip tanks containing 500 ppm sodium metabisulfite; or 3)Washed using the herein disclosed process (new wash) specifically as follows: Mushrooms were conveyed on a slotted conveyor belt and sprayed with tap water for 2 seconds. They dropped into a series of two dip tanks containing 3% (w/v) sodium erythorbate, 0.3% (w/v) sodium chloride, 0.3% (w/v) calcium chloride. Total residence time was 30 seconds. In the third treatment (new wash 1) the whole mushrooms were then treated with 2 ppm ozone spray followed immediately by 10 second exposure to ultraviolet lamp. New wash 2 mushrooms were treated as described above but was treated only with ozone, no ultraviolet light. New wash 3 mushrooms were treated with 7 seconds of ultraviolet light, no ozone. New wash 4 mushrooms were treated with ozone and ultraviolet light simultaneously. […]

O=S([O-])S(=O)(=O)[O-].[Na+].[Na+] [sulfite treated, sodium metabisulfite]
Total plate count (Experiment 1, 35 degrees Fahrenheit, sliced, Day 0): 178,805 cfu/g
Total plate count (Experiment 1, 35 degrees Fahrenheit, sliced, Day 3): 12,344,021 cfu/g
Total plate count (Experiment 1, 35 degrees Fahrenheit, sliced, Day 6): 31345339 cfu/g
Total plate count (Experiment 1, 35 degrees Fahrenheit, sliced, Day 9): 383205051 cfu/g
Total plate count (Experiment 1, 35 degrees Fahrenheit, whole, Day 0): 299,999 cfu/g
Total plate count (Experiment 1, 35 degrees Fahrenheit, whole, Day 3): 3,849,234 cfu/g
Total plate count (Experiment 1, 35 degrees Fahrenheit, whole, Day 6): 20709887 cfu/g
Total plate count (Experiment 1, 35 degrees Fahrenheit, whole, Day 9): 31562526 cfu/g
Total plate count (Experiment 1, 45 degrees Fahrenheit, sliced, Day 3): 69,673,049 cfu/g
Total plate count (Experiment 1, 45 degrees Fahrenheit, whole, Day 3): 216,318,555 cfu/g
Total plate count (Experiment 1, 55 degrees Fahrenheit, sliced, Day 3): 381,362,639 cfu/g
Total plate count (Experiment 1, 55 degrees Fahrenheit, whole, Day 3): 145,637,959 cfu/g
Total plate count (Experiment 2, 35 degrees Fahrenheit, sliced, Day 0): 168,922 cfu/g
Total plate count (Experiment 2, 35 degrees Fahrenheit, sliced, Day 2): 736,188 cfu/g
Total plate count (Experiment 2, 35 degrees Fahrenheit, sliced, Day 6): 6,101,012 cfu/g
Total plate count (Experiment 2, 35 degrees Fahrenheit, sliced, Day 9): 7,976,377 cfu/g
Total plate count (Experiment 2, 35 degrees Fahrenheit, sliced, Day 14): 702,413,006 cfu/g
Total plate count (Experiment 2, 35 degrees Fahrenheit, whole, Day 0): 24,188 cfu/g
Total plate count (Experiment 2, 35 degrees Fahrenheit, whole, Day 2): 59,492 cfu/g
Total plate count (Experiment 2, 35 degrees Fahrenheit, whole, Day 6): 428,579 cfu/g
Total plate count (Experiment 2, 35 degrees Fahrenheit, whole, Day 9): 734,285 cfu/g
Total plate count (Experiment 2, 35 degrees Fahrenheit, whole, Day 14): 253,940,711 cfu/g
Total Plate Count Sliced (Experiment 3, sliced, within 18 hours of processing): 918,987 cfu/gram
Total Plate Count Whole (Experiment 3, whole, within 18 hours of processing): 352,745 cfu/gram
